Results as given in patent publication US20230338463A1, “ICD PEPTIDE AND USE THEREOF FOR HAVING CYTOTOXIC ACTIVITY ON CANCER CELLS” (NATIONAL TSING HUA UNIVERSITY, priority 2022, published 2023).
Non-standard residues stand in square brackets, D forms with d. Residues, ends and D or L forms follow the SMILES beside them. Bip = N[C@@H](Cc1ccc(-c2ccccc2)cc1)C(=O)O; Dip = N[C@H](C(=O)O)C(c1ccccc1)c1ccccc1

Experiments:
MN-11 cell line = format: cell-based, murine; settings: 2 h
Experimental: Besides, evaluation of the killing kinetics of Nal-P-113, Bip-P-113 and Dip-P-113 for MN-11 was determined by MTT assay. Two-fold half 1inhibitory concentration (2 × IC50) was chosen for the experiments and the results were recorded at selected time points (30 mins, 1 hour, 2 hours and 4 hours). […] In 2 hours, the cell survival rate was near 50%.

[1] = test system: CGNHC9 cells (oral squamous cell carcinoma); settings: for cell viability percentage: human, 24 h
Text: (§1) Three non-small cell lung cancer cell lines (H1975, A549, PC9) and two oral cancer cell lines (CGNHC9, OECM-1) were used in the present invention. H1975 is the non-small cell lung carcinoma tissue, A549 is the adenocarcinomic alveolar basal epithelial cells and PC9 is the non-small cell lung cancer with EGFR mutation. CGNHC9 and OECM-1 cell lines refer to oral squamous cell carcinoma and gingival epidermoid carcinoma respectively. The abovemetioned cell lines were derived from human origin and being cultured in the humidified incubator containing 5% CO2 at 37° C. CGNHC9 cell line was cultured in Dulbecco’s modified Eagle’s medium (GIBCO Life Technologies Corporation, NY, USA) with 10% fetal bovine serum (FBS), 2 mM L-glutamine and 1% penicillin/ streptomycin and Roswell Park Memorial Institute 1640 (RPMI 1640, GIBCO Life Technologies Corporation, NY, USA) medium with 10% fetal bovine serum (FBS), 2 mM L-glutamine and 1% penicillin/ streptomycin was used as the culture medium for the rest of the cell lines.
(§2) The anticancer activity of ICD peptides include, not limited, SEQ ID NO: 1 and its derivative peptides (SEQ ID NO: 2, SEQ ID NO: 3, SEQ ID NO: 4, and SEQ ID NO: 5) was using the 3-(4,5-Dimethyl-2-thiazolyl)-2,5-diphenyl-2H-tetrazolium bromide (MTT, Sigma Aldrich, St. Louis, MO, USA) colorimetric assay for cell viability test. The cells include, not limited, H1975, A549, PC9, CGNHC9, OECM-1, MN-11 and HFW cells/cell lines.
(§3) The cells were seeded in the 96-well plate at 5000 cells/well under the environment of humidified 5% CO2 and the temperature of 37° C. for 24 hours. The medium was removed from the well before the fresh medium containing different concentrations of ICD peptides was added and incubated for 24 hours. Medium with PBS solution was used as control group. All ICD peptides were diluted serially from 100 µM to 0.78 µM in ddH2O before adding in the medium. After 24 hours of ICD peptide treatment, fresh medium with 10% MTT solution (5 mg/mL) was incubated for additional 4 hours in advance of dissolving the formazan crystal in 100 µL DMSO (Dimethyl sulfoxide, Sigma Aldrich) solution. The calculation of cell survival rate was completed by measuring the absorbance at 570 nm using microplate reader (TECAN Sunrise ELISA Reader).
(§4) The cell survival was calculated from the treated cells relative to the control (100% viable cells) using the mean of three independent experiments and expressed as a 50% inhibitory concentration (IC50).
(§5) The percentage of cell viability was calculated using the following formula: […]
(§6) The half inhibition concentration (IC50) is the concentration required by the drug to reach fifty percent inhibition. In one embodiment, the SEQ ID NO: 1 and its derivative peptides (SEQ ID NO:2, SEQ ID NO:3, SEQ ID NO:4, SEQ ID NO: 5) was used for IC50 test via MTT colorimetric assay.

[2] = test system: OECM-1 cells (gingival epidermoid carcinoma); settings: for cell viability percentage: human, 24 h
Text: as §1, §2, §3, §4, §5, §6

[3] = test system: PC9 cells (non-small cell lung cancer with EGFR mutation); settings: human, 24 h
Text: as §1, §2, §3, §4, §5, §6

[4] = test system: MN-11 cells (murine fibrosarcoma); format: cell-based
Text: Medium with PBS solution was used as control group.
Besides, MTT assay was used to test the cell viability of the murine fibrosarcoma MN-11 cell line. Among the peptides, Dip-P-113 had the lowest cytotoxicity against MN-11 cells (FIG. 1F).

[5] = test system: H1975 cells (non-small cell lung cancer); settings: 24 h
Text: as §1, §2, §3, §4, §5, §6

[6] = test system: A549 cells (adenocarcinomic alveolar basal epithelial cells); settings: A549, MTT, 24 hours
Text: as §1, §2, §3, §4, §5, §6

Compound | cell survival rate (MN-11 cell line) | cell viability percentage [1] | cell viability percentage [2] | cell viability percentage [3] | IC50 [4] | IC50 [5] | IC50 [6] | IC50 ([1]; CGNHC9, MTT, 24 hours) | IC50 ([2]; OECM-1, MTT, 24 hours)
CC(=O)N[C@@H](C)C(=O)N[C@@H](CCCCN)C(=O)N[C@@H](CCCNC(=N)N)C(=O)N[C@@H](Cc1ccc(-c2ccccc2)cc1)C(=O)N[C@@H](Cc1ccc(-c2ccccc2)cc1)C(=O)NCC(=O)N[C@@H](Cc1ccc(O)cc1)C(=O)N[C@@H](CCCCN)C(=O)N[C@@H](CCCNC(=N)N)C(=O)N[C@@H](CCCCN)C(=O)N[C@@H](Cc1ccccc1)C(=O)N[C@@H](Cc1ccc(-c2ccccc2)cc1)C(N)=O [SEQ ID NO:4, Ac-AKR Bip Bip GYKRKF Bip-NH2] (Ac-AKR[Bip][Bip]GYKRKF[Bip]-NH2) | ~50% | lower than 20% | lower than 20% | lower than 20% | 12.1 ± 0.47 µM | – | – | – | –
CC(=O)N[C@@H](C)C(=O)N[C@@H](CCCCN)C(=O)N[C@@H](CCCNC(=N)N)C(=O)N[C@H](C(=O)N[C@H](C(=O)NCC(=O)N[C@@H](Cc1ccc(O)cc1)C(=O)N[C@@H](CCCCN)C(=O)N[C@@H](CCCNC(=N)N)C(=O)N[C@@H](CCCCN)C(=O)N[C@@H](Cc1ccccc1)C(=O)N[C@H](C(N)=O)C(c1ccccc1)c1ccccc1)C(c1ccccc1)c1ccccc1)C(c1ccccc1)c1ccccc1 [SEQ ID NO: 5, Ac-AKR Dip Dip GYKRKFDip-NH2] (Ac-AKR[Dip][Dip]GYKRKF[Dip]-NH2) | ~50% | lower than 20% | lower than 20% | lower than 20% | 59.8 ± 6.13 µM | 100 µM | – | – | –
Ac-AKRFFGYKRKFF-NH2 [SEQ ID NO:2, Ac-AKR Phe Phe GYKRKF Phe-NH2] | – | – | – | – | – | 107 µM | – | – | –
Ac-AKRHHGYKRKFH-NH2 [SEQ ID NO: 1, Ac-AKR His His GYKRKF His-NH2] | – | – | – | – | – | 110 µM | 107 µM | 84.3 µM | 141 µM
